Source: patent US9815865B2, “Preparations of hydrophobic therapeutic agents, methods of manufacture and use thereof” (Aciex Therapeutics, Inc., priority 2013, dated 2017)
Values after ≈ are worked out from the molar mass of the structure shown. Where two headings read alike, the source gives them in different places.

Columns and labels:
[1] = In-vitro dissolution study in vitreous humor; format: physicochemical, Bovine; settings: crystals at 10 μm, 37° C., versus micronized TA at 10μ (FIG. 50)
Description: The rate of dissolution of ACX-TA crystals versus micronized TA in vitreous humor was studied. Bovine eyes were obtained fresh, and the vitreous humor was extracted. The vitreous humor was stored at 5° C., prior to use. 1 ml of crystals of various sizes (1.78 μm, 4.7 μm, 10.18 μm, or 15 μm) were incubated in a shaking incubator at 37° C. Crystals were prepared as described in Table 37 or 38. The crystals of 1.78 μm were prepared using citrate buffer and were of Form B, and the crystals of 4.7 μm, 10.18 μm, and 15 μm were prepared using phosphate buffer and were of Form C.

Tap density = format: physicochemical
[2] = Saturated solubility and rate of dissolution of FP
Description: The saturated solubility of FP was measured by HPLC for the nanocrystals produced by the batch process of the invention, FP homogenized and FP stock material.

[3] = Stability of FP nanocrystal suspensions (assay, impurities, pH, particle size); format: physicochemical
Text: This phase III composition was also stable chemically for more than 4 weeks at 40 degrees C. This combination of polymers also maintains the particle size at its original size for 5-14 days.
The stability of the nanocrystals is controlled by the pH of phase III, which is formed by the combination of phase I and phase II. A 20 gram batch of nanocrystals were produced at pH 5.5 and placed on stability at 25 degrees C. Another 20 gram batch was produced at pH 7.5 and stability determined at 25 degrees C. for 30 days. Unexpectedly, the particles at 7.5 grew rapidly to an average particle size greater than 1 micron. This phenomenon was verified for batches at the 50 gram scale.
It was also observed that the final compositions or formulations of FP were stable across all concentrations tested, i.e., 0.005%, 0.01%, 0.1%, and 10%. Samples were placed in 4° C., 25° C., 40° C. stability chambers. Stability time-points: T=0d, T=1 week, T=2 weeks, T=4 weeks.
Nanocrystals prepared by the batch process were tested on stability, to assess if the particle size distribution remained with a narrow range of 400-600 nm. […]
Samples were measured for particle size, pH, osmolality and assay. […]

[4] = Thermal analysis (DSC/TGA); format: physicochemical
Description: The table below summarizes the testing conditions and parameters for the simultaneous thermal analysis tests. The samples were (a) Fluticasone Propionate nanocrystals, and (b) Fluticasone Propionate, stock material. The specimens were tested under a heating rate of 10° C./min starting at 30° C. until reaching a final temperature of 350° C. This process was repeated for each specimen. The experiments were performed at EBATCO, LLC, Eden Prairie, Minn.
Thermal properties of the TA particles from Example 9 were investigated using a SHIMADZU® DSC-60 and TGA-50.
Approximately 10 mg of sample was analyzed in an open aluminum pan, and heated at scanning rate of 10° C.·min^−1 from room temperature to 320° C. […] Peak of the heat of melting is at 289.42° C., with ΔHm=83.50 J/g. In comparison, peak of the heat of melting for the nanocrystals produced by the process described in Example 9 is at 275.78° C., with ΔHm=108.45 J/g (FIG. 34).

[5] = Solubility of fluticasone propionate in FDA-approved solvents and excipients (RP-HPLC at 239 nm); format: physicochemical
Description: The specific composition of Phase I depends upon the solubility of the drug in this phase. […] The suspension was centrifuged at 10,000 rpm and the supernatant analyzed by RP-HPLC at 239 nm.

[6] = cited from earlier work
[7] = oral dosing of labeled and unlabeled conventional fluticasone propionate; cited from earlier work
[8] = Solubility of triamcinolone acetonide in non-aqueous solvents; format: physicochemical; settings: preliminary estimation; for solubility at 15 min: organic solvent or mixture, thermodynamic from solid
Description: Triamcinolone Acetonide (TA), stock was used as received from the manufacturer. Solubility of Triamcinolone Acetonide (TA) was measured in propylene glycol, polypropylene glycol, TWEEN® 20 (polysorbate 20), TWEEN 80 (polysorbate 80), PEG 400.
Initially, 5 mg of the TA was added to 10 g of solvent; the mixture was vortexed for 5 min, and sonicated for 10 min in a water bath. 1-5 mg of TA was added when the initial amount dissolved in the solvent completely—clear solution of TA in solvent. The process was continued until saturation solubility was reached. The solvent that provided the highest solubility was chosen for further development as Phase I.
The solubility of TA in propylene glycol, polypropylene glycol, PEG 400, TWEEN® 20 (polysorbate 20) and TWEEN® 80 (polysorbate 80) was evaluated. Initially, 5 mg of TA was added to these solvents and the suspension was vortexed and sonicated for 15 min in a water bath at 37° C. When the API (i.e., TA) dissolved, 1 mg of drug was added to the vial. This process was continued until a preliminary estimation of the drug in all solvents was achieved.

In the case of CC1(C)O[C@@H]2C[C@H]3[C@@H]4CCC5=CC(=O)C=C[C@]5(C)[C@@]4(F)[C@@H](O)C[C@]3(C)[C@]2(C(=O)CO)O1 [ACX-TA crystals], the “rate of dissolution in vitreous humor” value [1] is reported as “much slower rate of dissolution than micronized TA” and the tap density (Tap density) is reported as 0.5677 g/mL.

For CCC(=O)O[C@]1(C(=O)SCF)[C@H](C)C[C@H]2[C@@H]3C[C@H](F)C4=CC(=O)C=C[C@]4(C)[C@@]3(F)[C@@H](O)C[C@@]21C [FP homogenized], the saturated solubility [2] was 40 to 45 µg/mL.

With CCC(=O)O[C@]1(C(=O)SCF)[C@H](C)C[C@H]2[C@@H]3C[C@H](F)C4=CC(=O)C=C[C@]4(C)[C@@]3(F)[C@@H](O)C[C@@]21C [FP stock material] the “time to reach saturated solubility” value [2] was ≤ 2 weeks and the tap density (Tap density; listed as fluticasone propionate stock) was 0.3278 g/mL.

With CCC(=O)O[C@]1(C(=O)SCF)[C@H](C)C[C@H]2[C@@H]3C[C@H](F)C4=CC(=O)C=C[C@]4(C)[C@@]3(F)[C@@H](O)C[C@@]21C [Form A] the dissolution rate ([2]; in water at room temperature) was “about 1 μg/g/day”, the “time to reach saturated solubility” value ([2]; incubation in an aqueous medium) was 6 weeks and the agglomeration over time ([3]; after purification (FIG. 10)) was “did not display any agglomeration over time”. For the same molecule, the “average particle size on stability” value ([3]; phase III pH 7.5, 25 degrees C. for 30 days) was “greater than 1 micron”, the tap density (Tap density) was 0.5786 g/mL and the tap density (Tap density; listed as dried fluticasone propionate crystals prepared by the batch process) was 0.5786 g/mL.

With CC1(C)O[C@@H]2C[C@H]3[C@@H]4CCC5=CC(=O)C=C[C@]5(C)[C@@]4(F)[C@@H](O)C[C@]3(C)[C@]2(C(=O)CO)O1 [Stock TA, as purchased] the “Tm (Melting Point)” value [4] was 289.61 °C.

In the case of CC1(C)O[C@@H]2C[C@H]3[C@@H]4CCC5=CC(=O)C=C[C@]5(C)[C@@]4(F)[C@@H](O)C[C@]3(C)[C@]2(C(=O)CO)O1 [TA stock material], the tap density (Tap density) is reported as 0.4211 g/mL.

For CCC(=O)O[C@]1(C(=O)SCF)[C@H](C)C[C@H]2[C@@H]3C[C@H](F)C4=CC(=O)C=C[C@]4(C)[C@@]3(F)[C@@H](O)C[C@@]21C [fluticasone propionate, (6α,11β,16α,17α)-6,9,-difluoro-11-hydroxy-16-methyl-3-oxo-17-(1-oxopropoxy) androsta-1,4-diene-17-carbothioic acid, S-fluoromethyl ester], the solubility ([5]; Acetone, 25 °C, organic solvent or mixture, thermodynamic from solid, in Acetone, overnight at 25 degrees centigrade, read-out: Solubility) was 63000 µg/mL (≈ 126 mM), the solubility ([5]; Castor oil, 25 °C, oil or lipid, thermodynamic from solid, in Castor oil, overnight at 25 degrees centigrade, read-out: Solubility) was 18 µg/mL (≈ 0.036 mM) and the solubility ([5]; Corn oil, 25 °C, oil or lipid, thermodynamic from solid, in Corn oil, overnight at 25 degrees centigrade, read-out: Solubility) was 6.9 µg/mL (≈ 0.0138 mM). For the same molecule, the solubility ([5]; Ethanol, 25 °C, organic solvent or mixture, thermodynamic from solid, in Ethanol, equilibrated overnight at 25 degrees centigrade, read-out: Solubility) was 4450 µg/mL (≈ 8.88 mM), the solubility ([5]; Glycerin, 25 °C, organic solvent or mixture, thermodynamic from solid, in Glycerin, overnight at 25 degrees centigrade, read-out: Solubility) was 144 µg/mL (≈ 0.288 mM) and the solubility ([5]; Methylene Chloride, 25 °C, organic solvent or mixture, thermodynamic from solid, in Methylene Chloride, overnight at 25 degrees centigrade, read-out: Solubility) was 9250 µg/mL (≈ 18.5 mM). The solubility ([5]; PEG 200, 25 °C, organic solvent or mixture, thermodynamic from solid, in PEG 200, overnight at 25 degrees centigrade, read-out: Solubility) was 4210 µg/mL (≈ 8.4 mM), the solubility ([5]; PEG 400, 25 °C, organic solvent or mixture, thermodynamic from solid, in PEG 400, overnight at 25 degrees centigrade, read-out: Solubility) was 4330 µg/mL (≈ 8.65 mM) and the solubility ([5]; PHOSAL 50 PG, 25 °C, oil or lipid, thermodynamic from solid, in PHOSAL 50 PG, overnight at 25 degrees centigrade, read-out: Solubility) was 426 µg/mL (≈ 0.851 mM). It also gave a solubility ([5]; PPG, 25 °C, organic solvent or mixture, thermodynamic from solid, in PPG, overnight at 25 degrees centigrade, read-out: Solubility) of 2230 µg/mL (≈ 4.45 mM), a solubility ([5]; Polysorbate 20, 25 °C, aqueous with cosolvent or surfactant or cyclodextrin, thermodynamic from solid, in Polysorbate 20, overnight at 25 degrees centigrade, read-out: Solubility) of 7060 µg/mL (≈ 14.1 mM) and a solubility ([5]; Polysorbate 60, 25 °C, aqueous with cosolvent or surfactant or cyclodextrin, thermodynamic from solid, in Polysorbate 60, overnight at 25 degrees centigrade, read-out: Solubility) of 4910 µg/mL (≈ 9.81 mM). The solubility ([5]; Polysorbate 80, 25 °C, aqueous with cosolvent or surfactant or cyclodextrin, thermodynamic from solid, in Polysorbate 80, overnight at 25 degrees centigrade, read-out: Solubility) was 4660 µg/mL (≈ 9.3 mM), the solubility ([5]; Propylene glycol, 25 °C, organic solvent or mixture, thermodynamic from solid, in Propylene glycol, overnight at 25 degrees centigrade, read-out: Solubility) was 764 µg/mL (≈ 1.53 mM) and the solubility ([5]; Span 20, 25 °C, aqueous with cosolvent or surfactant or cyclodextrin, thermodynamic from solid, in Span 20, overnight at 25 degrees centigrade, read-out: Solubility) was 46.9 µg/mL (≈ 0.0937 mM). For the same molecule, the solubility ([5]; Span 80, 25 °C, aqueous with cosolvent or surfactant or cyclodextrin, thermodynamic from solid, in Span 80, overnight at 25 degrees centigrade, read-out: Solubility) was 52.1 µg/mL (≈ 0.104 mM), the solubility ([5]; in Dextrose 5%, overnight at 25 degrees centigrade) was 5.3 µg/mL (≈ 0.0106 mM) and the solubility ([5]; in PHOSAL 50 PG, overnight at 25 degrees centigrade) was 660.1 µg/mL (≈ 1.32 mM). It also gave a solubility ([5]; in PHOSAL 53 MCT, overnight at 25 degrees centigrade) of 400 µg/mL (≈ 0.799 mM), a solubility ([5]; in n-octanol, overnight at 25 degrees centigrade) of 87.3 µg/mL (≈ 0.174 mM) and a solubility ([5]; oleic acid, 25 °C, oil or lipid, thermodynamic from solid, in oleic acid, overnight at 25 degrees centigrade, read-out: Solubility) of 13.6 µg/mL (≈ 0.0272 mM). The solubility ([5]; phosphate buffer, 25 °C, pH 7, aqueous buffer, thermodynamic from solid, in Phos buff pH = 7, overnight at 25 degrees centigrade, read-out: Solubility) was 9.5 µg/mL (≈ 0.019 mM), the solubility ([5]; water, 25 °C, water, thermodynamic from solid, in water, overnight at 25 degrees centigrade, read-out: Solubility) was 0.14 µg/mL (≈ 0.00028 mM) and the “solubility (descriptive)” value ([6]; in dimethyl sulfoxide and dimethyl-formamide) was “freely soluble”. For the same molecule, the “solubility (descriptive)” value ([6]; in methanol and 95% ethanol) was “slightly soluble” and the oral systemic bioavailability [7] was < 1%.

For CC1(C)O[C@@H]2C[C@H]3[C@@H]4CCC5=CC(=O)C=C[C@]5(C)[C@@]4(F)[C@@H](O)C[C@]3(C)[C@]2(C(=O)CO)O1 [triamcinolone acetonide, (4aS,4bR,5S,6aS,6bS,9aR,10aS,10bS)-4b-fluoro-6b-glycoloyl-5-hydroxy-4a,6a,8,8-tetramethyl-4a,4b,5,6,6a,6b,9a,10,10a,10b,11,12-dodecahydro-2H-naphtho[2′,1′:4,5]indeno[1,2-d][1,3] dioxol-2-one], the solubility ([8]; in PEG 400, 37° C.) was 7000 µg/mL (≈ 16.1 mM), the solubility ([8]; in polypropylene glycol, 37° C.) was 8000 µg/mL (≈ 18.4 mM) and the solubility at 15 min ([8]; in Propylene glycol, sonicated in water bath at 37° C.) was 14000 µg/mL (≈ 32.2 mM). The solubility at 15 min ([8]; in TWEEN 20 (polysorbate 20), 37° C.) was 5500 µg/mL (≈ 12.7 mM), the solubility at 15 min ([8]; in TWEEN 80 (polysorbate 80), 37° C.) was 4000 µg/mL (≈ 9.21 mM) and the water solubility ([6]; at 28° C.) was 17.5 µg/mL (≈ 0.0403 mM). For the same molecule, the “solubility (descriptive)” value ([6]; in water) was “practically insoluble”.
